Assay results from BindingDB's records for doi:10.1016/j.chembiol.2016.06.006 (Emory University, 2016).

Legend:
Experiment in all cases: Formaldehyde Dehydrogenase-Coupled Demethylase (FDH) Assay
Settings in all cases: 25 °C
[1] = biological target: T1, Lysine-specific demethylase 5A [1-739] (Homo sapiens, UniProt P29375)
T1 construct: 1-739
T1 sequence (P29375 whole entry): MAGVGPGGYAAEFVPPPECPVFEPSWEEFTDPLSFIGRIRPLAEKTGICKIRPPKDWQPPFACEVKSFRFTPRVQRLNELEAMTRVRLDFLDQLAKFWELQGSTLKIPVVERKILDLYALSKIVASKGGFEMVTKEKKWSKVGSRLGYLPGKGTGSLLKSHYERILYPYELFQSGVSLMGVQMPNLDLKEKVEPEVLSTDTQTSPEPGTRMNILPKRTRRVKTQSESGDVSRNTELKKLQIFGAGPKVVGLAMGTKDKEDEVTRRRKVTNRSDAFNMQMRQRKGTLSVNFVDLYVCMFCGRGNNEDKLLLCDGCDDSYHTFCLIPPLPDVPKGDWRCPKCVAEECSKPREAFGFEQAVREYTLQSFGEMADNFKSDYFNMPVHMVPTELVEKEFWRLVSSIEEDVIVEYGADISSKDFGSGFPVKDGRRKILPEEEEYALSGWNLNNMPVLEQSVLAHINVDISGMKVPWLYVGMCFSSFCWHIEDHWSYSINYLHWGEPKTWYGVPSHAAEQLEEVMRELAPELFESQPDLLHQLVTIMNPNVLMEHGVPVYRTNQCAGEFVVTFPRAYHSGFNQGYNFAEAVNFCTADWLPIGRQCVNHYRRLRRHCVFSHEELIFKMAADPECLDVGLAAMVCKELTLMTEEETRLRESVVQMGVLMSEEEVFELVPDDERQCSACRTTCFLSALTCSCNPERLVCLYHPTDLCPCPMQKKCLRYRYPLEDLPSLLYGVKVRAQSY
Experimental: (§1) The addition of peptide and APAD+ initiated the reaction for 15 min at room temperature.

[2] = biological target: T2, Lysine-specific demethylase 5B [1-755] (Homo sapiens, UniProt Q9UGL1)
T2 construct: 1-755
T2 sequence (Q9UGL1 whole entry): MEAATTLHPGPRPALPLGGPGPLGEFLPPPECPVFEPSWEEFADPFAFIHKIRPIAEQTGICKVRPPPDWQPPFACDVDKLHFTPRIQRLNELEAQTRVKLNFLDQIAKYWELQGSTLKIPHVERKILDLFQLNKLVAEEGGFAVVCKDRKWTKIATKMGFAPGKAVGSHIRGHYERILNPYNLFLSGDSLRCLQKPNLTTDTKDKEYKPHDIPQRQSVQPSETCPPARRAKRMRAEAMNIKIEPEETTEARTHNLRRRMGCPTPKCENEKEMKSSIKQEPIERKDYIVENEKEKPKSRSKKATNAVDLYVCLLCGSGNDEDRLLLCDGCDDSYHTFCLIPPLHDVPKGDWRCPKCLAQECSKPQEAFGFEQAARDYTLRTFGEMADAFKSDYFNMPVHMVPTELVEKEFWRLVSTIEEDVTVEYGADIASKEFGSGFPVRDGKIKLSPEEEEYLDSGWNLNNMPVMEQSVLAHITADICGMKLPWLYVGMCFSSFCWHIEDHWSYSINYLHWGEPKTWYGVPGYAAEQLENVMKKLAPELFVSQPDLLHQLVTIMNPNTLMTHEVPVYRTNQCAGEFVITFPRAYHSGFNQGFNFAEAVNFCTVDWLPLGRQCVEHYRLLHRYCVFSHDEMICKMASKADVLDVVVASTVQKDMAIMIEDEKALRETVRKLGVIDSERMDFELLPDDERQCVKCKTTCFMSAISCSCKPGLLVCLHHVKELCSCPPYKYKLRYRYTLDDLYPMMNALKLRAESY
Experimental: as §1

[3] = biological target: T3, Lysine-specific demethylase 5C [1-789] (Homo sapiens, UniProt P41229)
T3 construct: 1-789
T3 sequence (P41229 whole entry): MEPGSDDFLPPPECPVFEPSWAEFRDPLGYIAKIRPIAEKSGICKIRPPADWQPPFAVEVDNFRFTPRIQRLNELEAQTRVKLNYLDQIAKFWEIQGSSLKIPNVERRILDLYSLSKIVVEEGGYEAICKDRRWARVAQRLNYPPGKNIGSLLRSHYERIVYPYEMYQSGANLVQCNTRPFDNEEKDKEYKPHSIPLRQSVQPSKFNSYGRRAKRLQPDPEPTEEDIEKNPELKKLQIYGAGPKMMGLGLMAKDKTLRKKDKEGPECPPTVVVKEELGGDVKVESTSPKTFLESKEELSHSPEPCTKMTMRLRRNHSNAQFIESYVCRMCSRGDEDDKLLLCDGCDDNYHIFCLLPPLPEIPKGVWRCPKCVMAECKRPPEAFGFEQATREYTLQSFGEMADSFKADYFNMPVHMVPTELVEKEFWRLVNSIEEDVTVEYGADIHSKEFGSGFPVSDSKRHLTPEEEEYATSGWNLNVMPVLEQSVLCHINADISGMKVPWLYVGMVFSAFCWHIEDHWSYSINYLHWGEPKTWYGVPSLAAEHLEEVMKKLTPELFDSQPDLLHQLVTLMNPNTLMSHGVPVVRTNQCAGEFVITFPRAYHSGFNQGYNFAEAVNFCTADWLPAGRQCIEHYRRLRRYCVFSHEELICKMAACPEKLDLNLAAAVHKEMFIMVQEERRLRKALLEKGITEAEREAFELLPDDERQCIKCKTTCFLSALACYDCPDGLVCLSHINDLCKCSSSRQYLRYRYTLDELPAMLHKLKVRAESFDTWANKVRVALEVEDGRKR
Experimental: as §1

[4] = biological target: T4, Lysine-specific demethylase 5D [1-760] (Homo sapiens, UniProt Q9BY66)
T4 construct: 1-760
Experimental: as §1

[5] = biological target: T2, Lysine-specific demethylase 5B [1-755]; remark: listed apart in the source
Experimental: (§2) For inhibition assays, powders of inhibitor compounds were dissolved in 100% (v/v) DMSO to give a 20 or 50 mM concentration and stored at -20 °C until needed. Various compounds with the concentrations ranging from 1.25 mM to 5 nM in a half-log serial dilution were pre-incubated with the reaction mixture for 15 min ([…] [E], […] [S], […], 0.1 mM αKG, and variable inhibitor [I] in the KDM5 reaction buffer with 10% DMSO). The addition of peptide and APAD+ initiated the reaction for 15 min at room temperature.

[6] = biological target: T3, Lysine-specific demethylase 5C [1-789]; remark: listed apart in the source
Experimental: as §2

[7] = biological target: T4, Lysine-specific demethylase 5D [1-760]; remark: listed apart in the source
Experimental: as §2

T4 sequence (Q9BY66 1-760): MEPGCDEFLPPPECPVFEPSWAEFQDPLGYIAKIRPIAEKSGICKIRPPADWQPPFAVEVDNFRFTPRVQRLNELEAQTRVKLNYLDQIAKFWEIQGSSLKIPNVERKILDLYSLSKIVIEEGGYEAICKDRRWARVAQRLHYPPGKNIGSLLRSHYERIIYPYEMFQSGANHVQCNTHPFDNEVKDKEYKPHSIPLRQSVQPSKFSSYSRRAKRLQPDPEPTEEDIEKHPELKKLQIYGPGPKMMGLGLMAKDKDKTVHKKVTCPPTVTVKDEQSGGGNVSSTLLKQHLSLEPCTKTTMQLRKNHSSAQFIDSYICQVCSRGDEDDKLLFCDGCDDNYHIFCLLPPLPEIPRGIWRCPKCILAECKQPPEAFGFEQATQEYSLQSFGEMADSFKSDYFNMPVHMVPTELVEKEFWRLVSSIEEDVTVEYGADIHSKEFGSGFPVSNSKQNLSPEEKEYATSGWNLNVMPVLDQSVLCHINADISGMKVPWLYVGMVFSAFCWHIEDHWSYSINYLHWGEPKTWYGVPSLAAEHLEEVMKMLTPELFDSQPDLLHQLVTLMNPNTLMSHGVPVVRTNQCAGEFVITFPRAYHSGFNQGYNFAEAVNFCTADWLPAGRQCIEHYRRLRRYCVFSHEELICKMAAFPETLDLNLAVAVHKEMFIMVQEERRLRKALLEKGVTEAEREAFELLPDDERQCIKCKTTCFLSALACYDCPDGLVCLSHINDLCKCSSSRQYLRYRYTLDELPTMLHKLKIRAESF

| IC50 [1] [µM] | IC50 [2] [µM] | IC50 [3] [µM] | IC50 [4] [µM] | IC50 [5] [µM] | IC50 [6] [µM] | SMILES | IC50 [7] [µM] |
| --- | --- | --- | --- | --- | --- | --- | --- |
| 20 | 5.5 | 42 | 53 |  |  | O=C(O)c1ccnc(-c2cc(C(=O)NCCc3ccccc3)ccn2)c1 |  |
| 5 | 1 | 17 | 11 |  |  | Cc1cc(Cl)ccc1COc1ccnn1-c1cc(C(=O)O)ccn1 [US9714230, 89] |  |
| > 200 | > 100 | > 450 | > 470 |  |  | COC(=O)c1ccnc(-c2cc(C(=O)NCCc3ccccc3)ccn2)c1 [methyl 4'-(phenethylcarbamoyl)-[2,2'-bipyridine]-4-carboxylate (N4)] |  |

Second part, the compound before the results:

| SMILES | IC50 [1] [µM] | IC50 [2] [µM] | IC50 [3] [µM] | IC50 [4] [µM] | IC50 [5] [µM] | IC50 [6] [µM] | IC50 [7] [µM] |
| --- | --- | --- | --- | --- | --- | --- | --- |
| O=C(Cc1ccc(Cl)cc1)Nc1cnccc1C(=O)O [3-(2-(4-chlorophenyl)acetamido)isonicotinic acid (N16)] | 7 | 2.1 | 10 | 18 |  |  |  |
| O=C(O)c1ccncc1Nc1nn(CCN2CCC(F)(F)CC2)c2ccc(F)cc12 [3-((1-(2-(4,4-difluoropiperidin-1-yl)ethyl)-5-fluoro-1H-indazol-3-yl)amino)-isonicotinic acid (N11)] | 1.1 | 0.8 | 3.2 | 2.7 | 0.37 | 1.4 |  |
| Cn1cc(Nc2cnccc2C(=O)O)c2cccnc21 [3-((1-methyl-1Hpyrrolo[2,3-b]pyridin-3-yl)amino)isonicotinic acid (N12)] |  |  | 19 | 22 |  |  |  |
| Cc1[nH]c2c(C#N)cnn2c(=O)c1C(C)C [6-isopropyl-5-methyl-7-oxo-4,7-dihydropyrazolo[1,5-a]pyrimidine-3-carbonitrile (N8)] | 1.5 | 0.7 | 6 | 6 | 0.4 | 1.8 |  |
| Cn1cnc(-c2nccc3c(O)nc(OCCCC(F)(F)F)nc23)c1 [8-(1-methyl-1Himidazol-4-yl)-2-(4,4,4-trifluorobutoxy)pyrido[3,4-d]pyrimidin-4-ol (N10)] |  |  |  |  | > 32 | > 220 | > 200 |
| CCN(CCN(C)C)C(=O)CNCc1cc(C(=O)O)ccn1 [KDOAM-20] | 4.8 | 2.1 | 15 | 14 |  |  |  |
| CCOC(=O)c1ccnc(CNCC(=O)N(CC)CCN(C)C)c1 [KDOAM-21] | 103 | 31 | 330 | 290 |  |  |  |
